According to US20240391870A1 (Arcturus Therapeutics, Inc., priority 2023, published 2024):

Key:
[1] = system: factor VII; test: Factor VII knock down evaluation (LNP with FVII siRNA); format: in vivo, Balb/C mice; conditions: plasma FVII after 48 h vs saline control; for FVII KD % 0.01 mpk: 0.01 mpk i.v.; for FVII KD % 0.03 mpk: 0.03 mpk i.v.
Procedure: Lipid formulations comprising a FVII siRNA further described below were evaluated for their knockdown activity using the protocol of this example. In the FVII evaluation, seven to eight week-old, female Balb/C mice were purchased from Charles River Laboratories (Hollister, CA). The mice were held in a pathogen-free environment and all procedures involving the mice were performed in accordance with guidelines established by the Institutional Animal Care and Use Committee (IACUC). Lipid nanoparticles containing factor VII siRNA were administered intravenously at a dosing volume of 10 mL/kg and two dose levels (0.03 and 0.01 mg/kg). After 48 h, the mice were anesthetized with isoflurane and blood was collected retro-orbitally into Microtainer® tubes coated with 0.109 M sodium citrate buffer (BD Biosciences, San Diego, CA) and processed to plasma. Plasma specimens were tested for factor VII levels immediately or stored at −80° C. for later analysis. Measurement of FVII protein in plasma was determined using the colorimetric Biophen VII assay kit (Aniara Diagnostica, USA). Absorbance was measured at 405 nm and a calibration curve was generated using the serially diluted control plasma to determine levels of factor VII in plasma from treated animals, relative to the saline-treated control animals.

[2] = system: hEPO; test: hEPO mRNA expression evaluation (hEPO-LNPs); format: in vivo, Balb/c mice; conditions: serum hEPO after 6 hr; for EPO exprssn (ng/mL) 0.1 mpk: 0.1 mpk i.v.; for EPO exprssn (ng/mL) 0.03 mpk: 0.03 mpk i.v.
Procedure: Protocol for hEPO mRNA Expression Evaluation
Lipid formulations comprising a hEPO mRNA below were evaluated for their ability to express hEPO in vivo according to the protocol of this example. All animal experiments were conducted using institutionally-approved protocols (IACUC). In this protocol, female Balb/c mice at least 6-8 weeks of age were purchased from Charles River Laboratory. […] After 6 hr, blood was collected with serum separation tubes, and the serum was isolated by centrifugation. Serum hEPO levels were then measured using an ELISA assay (Human Erythropoietin Quantikine IVD ELISA Kit, R&D Systems, Minneapolis, MD).

[3] = Mouse plasma stability; format: in vitro ADME, CD-1 mouse; conditions: 1 uM lipid
Procedure: Lipid stock solution was prepared by dissolution of the lipid in isopropanol at the concentration of 5 mg/mL. A requisite volume of the lipid-isopropanol solution was then diluted to 100 μM concentration at a total volume of 1.0 mL with in 50:50 (v/v) ethanol/water. Ten microliters of this 100 μM solution was spiked into 1.0 mL of mouse plasma (BioIVT, Cat. No.: MSE00PLNHUNN, CD-1 mouse, anticoagulant: sodium heparin, not filtered) that was pre-warmed to 37° C. and was stirred at 50 rpm with a magnetic stir bar. The starting concentration of lipids in plasma was thus 1 μM. At time points 0, 15, 30, 45, 60 and 120 min, 0.1 mL of the plasma was withdrawn from the reaction mixture and the protein was precipitated by adding 0.9 mL of ice-cold 4:1 (v/v) acetonitrile/methanol with 1 μg/mL of a selected internal standard lipid added. After filtration through a 0.45 micron 96-well filtering plate, the filtrates were analyzed by LC-MS (Thermo Fisher's Vanquish UHPLC—LTQ XL linear ion trap Mass Spectrometer); Waters XBridge BEH Shield RP18 2.5 micron (2.1×100 mm) column with its matching guard column. Mobile phase A was 0.1% formic acid in water, and mobile phase B was 0.1% formic acid in 1:1 (v/v) acetonitrile/methanol. Flow rate was 0.5 ml/min. Elution gradient was: Time 0-1 min: 10% B; 1-6 min: 10%-95% B; 6-8.5 min: 95% B; 8.5-9 min: 95%-10% B; 9-10 min: 10% B. Mass spectrometry was in positive scanning mode from 600-1100 m/z. The peak of the molecular ion of the lipids was integrated in the extracted ion chromatography (XIC) using Xcalibur software (Thermo Fisher). The relative peak area compared to T=0, after normalization by the peak area of the internal standard, was used as the percentage of the lipid remaining at each time point. T1/2 values were calculated using the first-order decay model.

[4] = Measured pKa in the indicated formulation; conditions: for pKa: EPO: measured in EPO formulation; for pKa: FVII: measured in FVII formulation
Procedure: Measured pKa values were determined based on the pH measured in the indicated formulation (i.e., EPO or FVII formulation).

[5] = In vivo biodegradability assay (lipid in liver); conditions: mouse liver, 48 h

Compound	Percent remaining in mouse plasma after 2 h ([3]; Table 1, mouse plasma 37 C)	Percent remaining in mouse plasma after 2 h ([3]; Table 2, mouse plasma 37 C)	pKa ([4]; EPO formulation)	pKa ([4]; FVII formulation)	pKa: EPO ([4]; Table 2)	pKa: FVII ([4]; Table 2)	In vivo degradability (ng/tissue) at 48h 0.03 mpk ([5]; Table 1)	In vivo degradability (ng/tissue) at 48h 0.1 mpk ([5]; Table 1)	In vivo degradability (ng/tissue) at 48h 0.03 mpk ([5]; Table 2)	In vivo degradability (ng/tissue) at 48h 0.1 mpk ([5]; Table 2)	FVII KD % 0.01 mpk ([1]; Table 1)	FVII KD % 0.03 mpk ([1]; Table 1)	FVII KD % 0.01 mpk ([1]; Table 2)	FVII KD % 0.03 mpk ([1]; Table 2)	EPO exprssn (ng/mL) 0.1 mpk ([2]; Table 2)	EPO exprssn (ng/mL) 0.03 mpk ([2]; Table 1)	EPO exprssn (ng/mL) 0.1 mpk ([2]; Table 1)	EPO exprssn (ng/mL) 0.03 mpk ([2]; Table 2)	pKa: EPO ([4]; Table 1)	pKa: FVII ([4]; Table 1)
CCCCCCCCC(=O)OCC(COC(=O)CCCCCCCC)OC(=O)CCN(CCC(=O)OC(COC(=O)CCCCCCCC)COC(=O)CCCCCCCC)C(=O)SCCCN(C)C [LIPID 13]	74%	74%	6.4	6.61	6.40	6.61	<340 ng/tissue	<340 ng/tissue	<340 ng/tissue	<340 ng/tissue	60%	87%	60%	87%	1488.1 ng/mL					
CN(C)CCCSC(=O)N(CCCC(=O)OC(COC(=O)CCCC1CCCCC1)COC(=O)CCCC1CCCCC1)CCCC(=O)OC(COC(=O)CCCC1CCCCC1)COC(=O)CCCC1CCCCC1 [LIPID 11, ((4,4′-((((3-(Dimethylamino)propyl)thio)carbonyl)azanediyl)bis(butanoyl))bis(oxy))bis(propane-2,1,3-triyl)tetrakis(4-cyclohexylbutanoate)]	40%	40%	6.6	6.68	6.6	6.68	BLOQ	BLOQ	BLOQ	BLOQ	84%	22%	84%	22%	548 ng/mL	169 ng/mL	548 ng/mL	169 ng/mL		
CCC1CCC(C(=O)OCC(COC(=O)C2CCC(CC)CC2)OC(=O)CCCN(CCCC(=O)OC(COC(=O)C2CCC(CC)CC2)COC(=O)C2CCC(CC)CC2)C(=O)SCCCN(C)C)CC1 (centres unmarked) [LIPID 16, ((4,4′-((((3-(Dimethylamino)propyl)thio)carbonyl)azanediyl)bis(butanoyl))bis(oxy))bis(propane-2,1,3-triyl)tetrakis(4-ethylcyclohexane-1-carboxylate)]	40%	40%	6.5	6.45			<340 ng/tissue	<340 ng/tissue	<340 ng/tissue	<340 ng/tissue	58%	88%	58%	88%	2088 ng/mL	2088 ng/mL	6358 ng/mL		(6.50/	6.45)
CCCCCCCCC(=O)OCC(COC(=O)CCCCCCCC)OC(=O)CN(CC(=O)OC(COC(=O)CCCCCCCC)COC(=O)CCCCCCCC)C(=O)SCCCN(C)C [LIPID 8, ((2,2′-((((3-(Dimethylamino)propyl)thio)carbonyl)azanediyl)bis(acetyl))bis(oxy))bis(propane-2,1,3-triyl)tetranonanoate]	81%	81%	6.5		(6.50/ND)		BLOQ	BLOQ	BLOQ	BLOQ					701 ng/mL	169 ng/mL	701 ng/mL	169 ng/mL		

Second part, led by results:

Percent remaining in mouse plasma after 2 h ([3]; Table 1, mouse plasma 37 C)	Percent remaining in mouse plasma after 2 h ([3]; Table 2, mouse plasma 37 C)	pKa ([4]; EPO formulation)	pKa ([4]; FVII formulation)	pKa: EPO ([4]; Table 2)	pKa: FVII ([4]; Table 2)	In vivo degradability (ng/tissue) at 48h 0.03 mpk ([5]; Table 1)	In vivo degradability (ng/tissue) at 48h 0.1 mpk ([5]; Table 1)	In vivo degradability (ng/tissue) at 48h 0.03 mpk ([5]; Table 2)	In vivo degradability (ng/tissue) at 48h 0.1 mpk ([5]; Table 2)	Compound	FVII KD % 0.01 mpk ([1]; Table 1)	FVII KD % 0.03 mpk ([1]; Table 1)	FVII KD % 0.01 mpk ([1]; Table 2)	FVII KD % 0.03 mpk ([1]; Table 2)	EPO exprssn (ng/mL) 0.1 mpk ([2]; Table 2)	EPO exprssn (ng/mL) 0.03 mpk ([2]; Table 1)	EPO exprssn (ng/mL) 0.1 mpk ([2]; Table 1)	EPO exprssn (ng/mL) 0.03 mpk ([2]; Table 2)	pKa: EPO ([4]; Table 1)	pKa: FVII ([4]; Table 1)
100%	100%	6.44	6.49	6.44	6.49	<340 ng/tissue	639 ng/tissue	<340 ng/tissue	639 ng/tissue	CCCCCCC(C)C(=O)OCC(COC(=O)C(C)CCCCCC)OC(=O)CCCN(CCCC(=O)OC(COC(=O)C(C)CCCCCC)COC(=O)C(C)CCCCCC)C(=O)SCCCN(C)C (centres unmarked) [LIPID 18, ((4,4′-((((3-(Dimethylamino)propyl)thio)carbonyl)azanediyl)bis(butanoyl))bis(oxy))bis(propane-2,1,3-triyl)tetrakis(2-methyloctanoate)]	60%	88%	60%	88%	1081 ng/mL		1081 ng/mL			
116%	100%	7.19	6.86	7.19	6.86	<340 ng/tissue	<340 ng/tissue	<340 ng/tissue	<340 ng/tissue	CCCCCCCCC(=O)OCC(COC(=O)CCCCCCCC)COC(=O)CCN(CCC(=O)OCC(COC(=O)CCCCCCCC)COC(=O)CCCCCCCC)C(=O)SCCCN(C)C [LIPID 14]	65%	90%	65%	90%	1152 ng/mL					
	100%	6.27		(6.27/ND)		<340 ng/tissue	847 ng/tissue	<340 ng/tissue	847 ng/tissue	CCCCCC(C)(C)C(=O)OCC(COC(=O)C(C)(C)CCCCC)OC(=O)CCCN(CCCC(=O)OC(COC(=O)C(C)(C)CCCCC)COC(=O)C(C)(C)CCCCC)C(=O)SCCCN(C)C [LIPID 19, ((4,4′-((((3-(Dimethylamino)propyl)thio)carbonyl)-azanediyl)bis(butanoyl))bis(oxy))bis(propane-2,1,3-triyl)tetrakis(2,2-dimethylheptanoate)]					958 ng/mL					
